According to paper PMC13242511, “Disrupting Notch signalling by a small molecule inhibiting dihydroorotate dehydrogenase activity” (Scientific Reports, 2026):
“And” between values parts separate entries of the source, which are not always exact repeats. Equal entries are not always repeated. Where two headings read alike, the source gives them in different places.

What was measured:
Notch signalling = assay: Notch reporter assay (12xCSL firefly luciferase / renilla luciferase, HEK293T Notch1ΔE reporter cell line clone #A1-11); assay type: cell-based; set-up: AUC Notch: scale not given here; details: for Bottom (Emax): Emax indicated independent from assay constraints, in % (unit assumed); for AUC Notch: area under the 14-point dose-response curve; for activity: 1,25µM
In short: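 Compounds at two-fold concentration in 10 µl medium were brought to one-fold by adding 10 µl holding 4000 Notch reporter cells (clone #A1-11) per well of a 384-well plate. After 24 h, Promega dual-GLO firefly and renilla luciferase were read on a SpectraMaxi3. Dose-response curves were fitted with a log(inhibitor) vs. response variable-slope model.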

γ-secretase complex = γ-secretase complex (Homo sapiens, UniProt P49768); assay: APP-C99 counter assay (GSI reporter assay); assay type: cell-based; set-up: AUC APP: scale not given here; details: for Hill-slope / curve fit information: bottom constrained to Emax of positive control LY-411575; for AUC APP: area under the 14-point dose-response curve, replicates averaged; for remaining activity at 10 µM / remaining activity at 25 µM / remaining activity at […]: 24 h, APP-C99 counter assay, read-out: 3p-DR in % of DMSO counter; for remaining activity at […]: 1,25µM
In short: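 γ-secretase activity reported via APP cleavage driving firefly luciferase, normalized to renilla. After 24 h transfection then 24 h compound exposure, signals were read (0.1 s integration). Triplicate dose–responses fitted by variable-slope four-parameter model for IC50; area under curve also derived.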

[1] = Homo sapiens, HEK-293T, 14p Notch assay DR, bottom constrained to Emax of positive control DAPT, read-out: approximated IC50
[2] = Homo sapiens, HEK-293T, 14p Notch assay DR, log10 value, bottom constrained to Emax of positive control DAPT, read-out: approximated LogIC50 (converted)
[3] = Homo sapiens, HEK-293T, 10 µM, primary screen, 24 h, unit from Fig. 2 legend, read-out: Primary screen at 10 µM (Notch reporter signal)
[4] = Homo sapiens, HEK-293T, 10 µM, three-dose confirmation screen, unit from Fig. 2 legend, read-out: Hit confirmation at 10 µM (Notch reporter signal)
[5] = Homo sapiens, HEK-293T, 10µM, 3-point DR confirmation screen, Notch reporter assay, read-out: inhibitor ratio in % of DMSO in 3 point DR
[6] = Homo sapiens, HEK-293T, 10 µM, sheet conf vs counter 10 µM, same values as 3-point DR confirmation screen, read-out: Confirmation screen
[7] = Homo sapiens, HEK-293T, 25µM, 3-point DR confirmation screen, Notch reporter assay, read-out: inhibitor ratio in % of DMSO in 3 point DR
[8] = Homo sapiens, HEK-293T, 25 µM, Notch reporter 3-point dose-confirmation assay, sheet "conf vs counter 25 µM", read-out: Confirmation screen
[9] = Homo sapiens, HEK-293T, 3-point DR confirmation screen, Notch reporter assay, read-out: inhibitor ratio in % of DMSO in 3 point DR
[10] = 9p dose response, AUCs averaged when replicates available
[11] = 9p dose response, log10 of averaged IC50
[12] = 14p dose response, AUCs averaged when replicates available
[13] = overview in comparison to compound C, Supplemental Fig. 9
[14] = Homo sapiens, HEK-293T, 14-point dose-response, Fig. 4, read-out: approximated IC50, Notch reporter assay

## CC(C)C(=O)Nc1sc2c(c1C(=O)NCc1cccnc1)CCC2 [CBK306144]
Notch signalling; 14-point dose-response, Fig. 4
  approximated IC50, Notch reporter assay: Indeterminate
Notch signalling; 14p Notch assay DR
  Bottom (Emax): ~ 92,84
Notch signalling; replicates averaged
  AUC Notch: 357.0
γ-secretase complex; 14p APP assay DR
  Hill-slope: -0.0106
γ-secretase complex
  AUC APP: 480.2

## Cc1cc(C)c2[nH]c(C(=O)N[C@H](c3ccccc3)c3ccnn3C)c(C)c2c1 [CBK315984]
Notch signalling; 14-point dose-response, Fig. 4
  approximated IC50, Notch reporter assay: Indeterminate
Notch signalling; 14p Notch assay DR
  Bottom (Emax): 96.7
Notch signalling; replicates averaged
  AUC Notch: 607.0
γ-secretase complex; 14p APP assay DR
  Hill-slope: -1.0
γ-secretase complex
  AUC APP: 698.8

## CC1CCc2c(sc3ncnc(NCCCN4CCCCCC4=O)c23)C1 (centres unmarked) [CBK305947]
Notch signalling; 14p Notch assay DR
  Bottom (Emax): 34.4
Notch signalling; [1]
  IC50: 7100 nM
Notch signalling; [2]
  IC50: 7940 nM
Notch signalling; [3]
  activity at 10 µM: 41.4%
Notch signalling; [4]
  activity at 10 µM: 66.5%
Notch signalling; [5]
  activity at 10 µM: 66.5%
Notch signalling; [6]
  activity at 10 µM: 66.5%
Notch signalling; [7]
  activity at 25 µM: 46.7%
Notch signalling; [8]
  activity at 25 µM: 46.7%
Notch signalling; [9]
  activity: 107%
Notch signalling; replicates averaged
  AUC Notch: 316.0
γ-secretase complex; 14p APP assay DR
  Hill-slope: 0.121
γ-secretase complex
  remaining activity at 10 µM: 118%
  remaining activity at 25 µM: 144%
  remaining activity at […]: 96.6%
  AUC APP: 578.1

## COc1ccc(C(=O)N2Cc3nc[nH]c3C[C@H]2c2nc(-c3ccc(OC)cc3)no2)cc1 [CBK288966]
Notch signalling; 14p Notch assay DR
  Bottom (Emax): 57.5
Notch signalling; [1]
  IC50: 5400 nM
Notch signalling; [2]
  IC50: 5010 nM
Notch signalling; [3]
  activity at 10 µM: 57.1%
Notch signalling; [4]
  activity at 10 µM: 58.5%
Notch signalling; [5]
  activity at 10 µM: 58.5%
Notch signalling; [6]
  activity at 10 µM: 58.5%
Notch signalling; [7]
  activity at 25 µM: 61.1%
Notch signalling; [8]
  activity at 25 µM: 61.1%
Notch signalling; [9]
  activity: 83.6%
Notch signalling; replicates averaged
  AUC Notch: 299.0
γ-secretase complex; 14p APP assay DR
  Hill-slope: -6.4
γ-secretase complex
  remaining activity at 10 µM: 120%
  remaining activity at 25 µM: 78.7%
  remaining activity at […]: 112%
  AUC APP: 443.8

## O=C(Nc1nnc(-c2ccc3c(c2)OCCO3)o1)c1ccccc1F [CBK287405]
Notch signalling; 14p Notch assay DR
  Bottom (Emax): 15.0
Notch signalling; [1]
  IC50: 3000 nM
Notch signalling; [2]
  IC50: 3160 nM
Notch signalling; [3]
  activity at 10 µM: 36.4%
Notch signalling; [4]
  activity at 10 µM: 44%
Notch signalling; [5]
  activity at 10 µM: 44%
Notch signalling; [6]
  activity at 10 µM: 44%
Notch signalling; [7]
  activity at 25 µM: 37.6%
Notch signalling; [8]
  activity at 25 µM: 37.6%
Notch signalling; [9]
  activity: 85.1%
Notch signalling; replicates averaged
  AUC Notch: 288.0
γ-secretase complex; 14p APP assay DR
  curve fit information: IC50 indeterminate
γ-secretase complex
  remaining activity at 10 µM: 137%
  remaining activity at 25 µM: 153%
  remaining activity at […]: 124%
  AUC APP: 502.9

## COc1cc(Nc2cncc(-c3cccc(N)c3)n2)cc(OC)c1OC [CBK065120]
Notch signalling; 14p Notch assay DR
  Bottom (Emax): 47.4
Notch signalling; [1]
  IC50: 23000 nM
Notch signalling; [2]
  IC50: 25100 nM
Notch signalling; replicates averaged
  AUC Notch: 329.0
γ-secretase complex; 14p APP assay DR
  Hill-slope: 0.0798
γ-secretase complex
  AUC APP: 545.0

## O=C(Nc1nnc(-c2ccc3c(c2)OCCO3)o1)c1cccc(F)c1 [CBK287402]
Notch signalling; 14p Notch assay DR
  Bottom (Emax): 87.8
Notch signalling; replicates averaged
  AUC Notch: 353.0
γ-secretase complex; 14p APP assay DR
  curve fit information: IC50 indeterminate
γ-secretase complex
  AUC APP: 499.9

## COc1cccc(Nc2nc(-c3cccnc3)cn3ccnc23)c1 [CBK103068]
Notch signalling; 14p Notch assay DR
  Bottom (Emax): 69.8
Notch signalling; [1]
  IC50: > 40000 nM
Notch signalling; [2]
  IC50: > 40000 nM
Notch signalling; replicates averaged
  AUC Notch: 335.0
γ-secretase complex; 14p APP assay DR
  Hill-slope: 0.0551
γ-secretase complex
  AUC APP: 517.0

## COc1cc(Nc2nc(-c3cccc(O)c3)cn3ccnc23)cc(OC)c1OC [CBK066361]
Notch signalling; 14p Notch assay DR
  Bottom (Emax): 55.6
Notch signalling; [1]
  IC50: 12000 nM
Notch signalling; [2]
  IC50: 12600 nM
Notch signalling; replicates averaged
  AUC Notch: 316.0
γ-secretase complex; 14p APP assay DR
  Hill-slope: -3.83e-12
  curve fit information: IC50 indeterminate
γ-secretase complex
  AUC APP: 487.2

## NC(=O)[C@@H](CC1CC1)[C@@H](CCC(F)(F)F)C(=O)N[C@H]1N=C(c2ccccc2)c2cccc(F)c2NC1=O [BMS-983970, reference compound]
Notch signalling; 9p dose response, single replicates, read-out: approximated IC50s 9p Notch reporter assay
  IC50: 1.2 nM
Notch signalling; [10]
  AUC 9p Notch reporter assay: 2.16E+02
Notch signalling; 9p dose response, averaged over replicates, read-out: 9p Notch reporter assay averaged IC50s
  IC50: 1.2 nM
Notch signalling; [11]
  9p Notch reporter assay averaged IC50s (log): -8.9
Notch signalling; 14-point, unit inferred, replicates averaged, read-out: approxiated IC50s 14p Notch reporter assay
  IC50: 3.6 nM
Notch signalling; 14p Notch assay DR
  Bottom (Emax): 49.6 and 50.5 and 62.5
Notch signalling; 14p Notch assay DR, Notch inhibitor controls, no bottom constraint named, read-out: approximated IC50
  IC50: 3.6 nM and ~2.3 nM
Notch signalling; 14p Notch assay DR, averaged when replicate measurements were available, read-out: averaged IC50s
  IC50: 3.6 nM
Notch signalling; 14p Notch assay DR, log10 value, Notch inhibitor controls, no bottom constraint named
  approximated LogIC50 [M]: -8.5 M
Notch signalling; 14p dose response, single replicates, read-out: approximated IC50s 14p Notch reporter assay
  IC50: 3.6 nM and 3.5 nM
Notch signalling; [12]
  AUC 14p Notch reporter assay: 4.10E+02
Notch signalling; 14p dose response, averaged over replicates, read-out: 14p Notch reporter assay averaged IC50s
  IC50: 3.6 nM
Notch signalling; 14p dose response, log10 of averaged IC50
  14p Notch reporter assay averaged IC50s (log): -8.4
Notch signalling; replicates averaged
  AUC Notch: 410.0
Notch signalling; [13]
  Notch assay: higher potency
γ-secretase complex; 9p dose response
  Hill-Slope 9p APP counter assay averaged: -1.6
γ-secretase complex; [10]
  AUC 9p APP-counter assay: 2.41E+02
γ-secretase complex; 9p dose response, averaged, read-out: 9p APP counter assay averaged IC50s
  IC50: 22 nM
γ-secretase complex; [11]
  9p APP counter assay averaged IC50s (log): -7.7
γ-secretase complex; 9p dose response, read-out: approximated IC50s 9p APP counter assay
  IC50: 22 nM
γ-secretase complex; 14-point, unit inferred, some fits outside of tested concentration range, read-out: approximated IC50s 14p APP-counter assay
  IC50: 400 nM
γ-secretase complex; 14p APP assay DR, Emax indicated independent from assay constraints
  Bottom (Emax): 45.9 and 48.3
γ-secretase complex; 14p APP assay DR, Notch inhibitor controls, no bottom constraint named, read-out: approximated IC50
  IC50: 44 nM and 70 nM
γ-secretase complex; [12]
  AUC. 14p APP-counter assay: 4.87E+02
γ-secretase complex; 14p dose response, averaged over replicates, read-out: 14p APP counter assay averaged IC50s
  IC50: 57 nM
γ-secretase complex
  AUC APP: 486.6
γ-secretase complex; [13]
  APP assay: higher potency

## CC(=O)N1CCc2sccc2C1c1ccccc1NC(=O)c1ccco1 (centres unmarked) [CBK286436]
Notch signalling; 14p Notch assay DR
  Bottom (Emax): 99.7
Notch signalling; replicates averaged
  AUC Notch: 629.0
γ-secretase complex; 14p APP assay DR
  curve fit information: IC50 indeterminate
γ-secretase complex
  AUC APP: 642.7

## CCOC(=O)c1c(NC(=O)NCc2cccnc2)sc2c1CCC2 [CBK307585]
Notch signalling; 14p Notch assay DR
  Bottom (Emax): 71.6
Notch signalling; [14]
  IC50: 6600 nM
Notch signalling; replicates averaged
  AUC Notch: 338.0
γ-secretase complex; 14p APP assay DR
  Hill-slope: -0.6
γ-secretase complex
  AUC APP: 444.5

## COc1ccccc1-c1cn2ccnc2c(Nc2cc(OC)c(OC)c(OC)c2)n1 [CBK066148]
Notch signalling; 14p Notch assay DR
  Bottom (Emax): 58.8
Notch signalling; [1]
  IC50: 27000 nM
Notch signalling; [2]
  IC50: 25100 nM
Notch signalling; replicates averaged
  AUC Notch: 336.0
γ-secretase complex; 14p APP assay DR
  Hill-slope: 0.0659
γ-secretase complex
  AUC APP: 523.0

## Cc1ccc2cc(C(=O)NC(C)c3cnn(C)c3C)[nH]c2c1 (centres unmarked) [CBK246728]
Notch signalling; [14]
  IC50: > 5000 nM
Notch signalling; [1]
  IC50: > 5000 nM
Notch signalling; [2]
  IC50: > 5000 nM
Notch signalling; replicates averaged
  AUC Notch: 605.0
γ-secretase complex; 14p APP assay DR
  curve fit information: IC50 indeterminate
γ-secretase complex
  AUC APP: 720.8

## COc1ccc(-c2cn3ccnc3c(Nc3ccccc3)n2)cc1 [CBK066257]
Notch signalling; 14p Notch assay DR
  Bottom (Emax): 91.1
Notch signalling; replicates averaged
  AUC Notch: 403.0
γ-secretase complex; 14p APP assay DR
  Hill-slope: -3.32e-11
  curve fit information: IC50 indeterminate
γ-secretase complex
  AUC APP: 515.8
